Laboratory results: patent publication US9809623B2, “α4β7 peptide monomer and dimer antagonists” (Protagonist Therapeutics, Inc., priority 2014, dated 2017)
Numbered stars: 1 amine (or outer) side, 2 acyl side, 3 side chain; on linkers, the order of the positions; unused ones are H or OH. Bridge positions count the residues as written; N and C are the ends. Square brackets hold non-standard residues; d marks the D form. Peptide text beside a SMILES is read from it. I, II: the chains in the order shown. X1 = O=C(CCOCCOCCOCCOCCOCCOCCOCCOCCOCCOCCOCCOCCOCCOCCOCCOCCOCCOCCOCCOCCOCCOCCOCCOCCOCCOCCC(=O)[*:2])[*:1]; X4 = O=C(CCOCCOCCOCCOCCOCCOCCOCCOCCOCCOCCOCCOCCOCCOCCC(=O)[*:2])[*:1]; Phe(4-COOH) = N[C@@H](Cc1ccc(C(=O)O)cc1)C(=O)O; Phe(2-CONH2) = NC(=O)c1ccccc1C[C@H](N)C(=O)O; 1Nal = N[C@@H](Cc1cccc2ccccc12)C(=O)O; 2Nal = N[C@@H](Cc1ccc2ccccc2c1)C(=O)O; Diglycolyl = O=C(COCC(=O)[*:2])[*:1]; NMeR = CN[C@@H](CCCNC(=N)N)C(=O)O; Tic = O=C(O)[C@@H]1Cc2ccccc2CN1; Pen = CC(C)(S)[C@H](N)C(=O)O; hLeu = CC(C)CC[C@H](N)C(=O)O

These compounds were tested against α4β7 (Homo sapiens, UniProt P13612+P26010) (assay: α4β7-MAdCAM Cell Adhesion Assay (RPMI 8866 human cells)). Details: Table 3-B, Potency (α4β7); range classes; read-out: α4β7 cell (Hu) IC50.
α4β7, sequence (P13612 34-1032): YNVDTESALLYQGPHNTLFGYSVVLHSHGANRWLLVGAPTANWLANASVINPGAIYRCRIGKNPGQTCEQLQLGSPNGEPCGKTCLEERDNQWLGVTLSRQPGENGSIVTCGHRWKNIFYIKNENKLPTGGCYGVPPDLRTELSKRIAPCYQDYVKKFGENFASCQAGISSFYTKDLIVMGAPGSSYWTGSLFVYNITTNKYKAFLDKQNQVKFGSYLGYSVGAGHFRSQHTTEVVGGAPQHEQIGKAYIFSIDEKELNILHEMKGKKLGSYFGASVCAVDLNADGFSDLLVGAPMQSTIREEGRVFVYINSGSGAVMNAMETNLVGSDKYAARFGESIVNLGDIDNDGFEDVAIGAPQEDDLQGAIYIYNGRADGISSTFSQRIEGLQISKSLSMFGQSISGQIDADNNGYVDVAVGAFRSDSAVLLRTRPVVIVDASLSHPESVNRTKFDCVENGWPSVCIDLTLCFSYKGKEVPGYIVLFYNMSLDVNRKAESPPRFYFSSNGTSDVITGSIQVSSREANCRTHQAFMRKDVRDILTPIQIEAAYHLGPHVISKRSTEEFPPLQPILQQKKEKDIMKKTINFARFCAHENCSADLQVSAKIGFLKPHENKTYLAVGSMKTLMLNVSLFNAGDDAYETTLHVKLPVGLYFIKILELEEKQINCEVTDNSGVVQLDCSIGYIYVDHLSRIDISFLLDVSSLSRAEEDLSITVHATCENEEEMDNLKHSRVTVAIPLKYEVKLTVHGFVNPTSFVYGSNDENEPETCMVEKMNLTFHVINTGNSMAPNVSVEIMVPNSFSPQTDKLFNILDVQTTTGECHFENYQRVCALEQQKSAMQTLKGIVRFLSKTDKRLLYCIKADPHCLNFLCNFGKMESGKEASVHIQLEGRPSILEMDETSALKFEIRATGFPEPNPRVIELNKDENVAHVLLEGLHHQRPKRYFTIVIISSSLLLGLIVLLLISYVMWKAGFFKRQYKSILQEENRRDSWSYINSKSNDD
α4β7, sequence (P26010 20-798): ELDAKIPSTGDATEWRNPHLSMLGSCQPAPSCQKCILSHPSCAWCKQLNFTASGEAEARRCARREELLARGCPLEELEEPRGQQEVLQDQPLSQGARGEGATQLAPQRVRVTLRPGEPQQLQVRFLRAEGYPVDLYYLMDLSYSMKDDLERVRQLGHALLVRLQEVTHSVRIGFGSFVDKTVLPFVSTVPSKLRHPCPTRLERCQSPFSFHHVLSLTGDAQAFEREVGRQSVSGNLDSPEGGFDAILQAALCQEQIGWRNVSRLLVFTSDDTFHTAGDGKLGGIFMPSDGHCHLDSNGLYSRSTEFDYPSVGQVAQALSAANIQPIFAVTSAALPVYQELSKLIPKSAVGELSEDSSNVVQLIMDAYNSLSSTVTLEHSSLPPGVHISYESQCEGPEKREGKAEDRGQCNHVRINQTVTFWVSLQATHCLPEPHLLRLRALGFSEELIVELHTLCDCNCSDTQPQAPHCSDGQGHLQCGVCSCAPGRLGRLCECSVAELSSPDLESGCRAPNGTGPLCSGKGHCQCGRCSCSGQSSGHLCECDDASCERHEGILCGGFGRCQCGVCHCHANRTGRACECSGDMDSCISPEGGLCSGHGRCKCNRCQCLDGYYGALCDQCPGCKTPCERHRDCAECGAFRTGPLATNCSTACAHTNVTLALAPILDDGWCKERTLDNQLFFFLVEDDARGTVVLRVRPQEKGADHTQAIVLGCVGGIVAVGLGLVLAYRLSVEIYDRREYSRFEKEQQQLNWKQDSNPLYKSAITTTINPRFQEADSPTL
Assay type: cell-based
Design: host or cells: RPMI 8866 human B lymphoblastoid cells
Outline: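 Washed RPMI 8866 cells (200,000/well) in DMEM with 0.1% BSA, 10 mM HEPES pH 7, 1 mM MnCl2 adhered to rh MAdCAM-1/Fc-coated wells with serially diluted peptides, 30-45 min at 37 °C. After three washes, bound cells quantified by MTT, A570, cell-free background subtracted for dose response.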
Compound `CC(=O)N[C@H]1CSSC(C)(C)[C@@H](C(=O)N[C@@H](Cc2c[nH]c3ccccc23)C(=O)N[C@H](CCCCNC(=O)CCOCCOCCOCCOCCOCCOCCOCCOCCOCCOCCOCCOCCOCCOCCC(=O)NCCCC[C@@H](NC(=O)[C@H](Cc2c[nH]c3ccccc23)NC(=O)[C@H]2NC(=O)[C@H](CC(C)C)NC(=O)[C@H]([C@@H](C)O)NC(=O)[C@H](CC(=O)O)NC(=O)[C@H](CO)NC(=O)[C@H](CCCNC(=N)N)N(C)C(=O)[C@@H](NC(C)=O)CSSC2(C)C)C(N)=O)C(N)=O)NC(=O)[C@H](CC(C)C)NC(=O)[C@H]([C@@H](C)O)NC(=O)[C@H](CC(=O)O)NC(=O)[C@H](CO)NC(=O)[C@H](CCCNC(=N)N)N(C)C1=O` [compound 36] (I: Ac-C[NMeR]SDTL[Pen]W[dK]-NH2 / II: Ac-C[NMeR]SDTL[Pen]W[dK]-NH2; disulfide I:1-I:7, II:1-II:7; linker I:9-II:9 via X4) has an IC50 of 50 to 100 nM.
`CC(=O)N[C@@H]1C(=O)N(C)[C@@H](CCCNC(=N)N)C(=O)N[C@@H](CO)C(=O)N[C@@H](CC(=O)O)C(=O)N[C@@H]([C@@H](C)O)C(=O)N[C@@H](CC(C)C)C(=O)N[C@H](C(=O)N2Cc3ccccc3C[C@H]2C(=O)N[C@H](CCC(=O)O)C(=O)N[C@H](CCCCNC(=O)COCC(=O)NCCCC[C@@H](NC(=O)[C@@H](CCC(=O)O)NC(=O)[C@@H]2Cc3ccccc3CN2C(=O)[C@@H]2CSSC(C)(C)[C@H](NC(C)=O)C(=O)N(C)[C@@H](CCCNC(=N)N)C(=O)N[C@@H](CO)C(=O)N[C@@H](CC(=O)O)C(=O)N[C@@H]([C@@H](C)O)C(=O)N[C@@H](CC(C)C)C(=O)N2)C(N)=O)C(N)=O)CSSC1(C)C` [compound 93] (I: Ac-[Pen][NMeR]SDTLC[Tic][dE][dK]-NH2 / II: Ac-[Pen][NMeR]SDTLC[Tic][dE][dK]-NH2; disulfide I:1-I:7, II:1-II:7; linker I:10-II:10 via Diglycolyl) gave an IC50 of 500 to 1000 nM.
Work on `CC(=O)N[C@H]1CSSC(C)(C)[C@@H](C(=O)N[C@@H](Cc2c[nH]c3ccccc23)C(=O)N[C@H](CCCCNC(=O)CCOCCOCCOCCOCCOCCOCCOCCOCCOCCOCCOCCOCCOCCOCCOCCOCCOCCOCCOCCOCCOCCOCCOCCOCCOCCOCCC(=O)NCCCC[C@@H](NC(=O)[C@H](Cc2c[nH]c3ccccc23)NC(=O)[C@H]2NC(=O)[C@H](CC(C)C)NC(=O)[C@H]([C@@H](C)O)NC(=O)[C@H](CC(=O)O)NC(=O)[C@H](CO)NC(=O)[C@H](CCCNC(=N)N)N(C)C(=O)[C@@H](NC(C)=O)CSSC2(C)C)C(N)=O)C(N)=O)NC(=O)[C@H](CC(C)C)NC(=O)[C@H]([C@@H](C)O)NC(=O)[C@H](CC(=O)O)NC(=O)[C@H](CO)NC(=O)[C@H](CCCNC(=N)N)N(C)C1=O` [compound 37] (I: Ac-C[NMeR]SDTL[Pen]W[dK]-NH2 / II: Ac-C[NMeR]SDTL[Pen]W[dK]-NH2; disulfide I:1-I:7, II:1-II:7; linker I:9-II:9 via X1) yielded an IC50 of 100 to 500 nM.
`CC(=O)N[C@@H]1C(=O)N(C)[C@@H](CCCNC(=N)N)C(=O)N[C@@H](CO)C(=O)N[C@@H](CC(=O)O)C(=O)N[C@@H]([C@@H](C)O)C(=O)N[C@@H](CC(C)C)C(=O)N[C@H](C(=O)N[C@@H](Cc2c[nH]cn2)C(=O)N[C@@H](CCC(=O)O)C(=O)N[C@H](CCCCNC(=O)COCC(=O)NCCCC[C@@H](NC(=O)[C@H](CCC(=O)O)NC(=O)[C@H](Cc2c[nH]cn2)NC(=O)[C@H]2NC(=O)[C@H](CC(C)C)NC(=O)[C@H]([C@@H](C)O)NC(=O)[C@H](CC(=O)O)NC(=O)[C@H](CO)NC(=O)[C@H](CCCNC(=N)N)N(C)C(=O)[C@@H](NC(C)=O)C(C)(C)SSC2(C)C)C(N)=O)C(N)=O)C(C)(C)SSC1(C)C` [compound 25] (I: Ac-[Pen][NMeR]SDTL[Pen]HE[dK]-NH2 / II: Ac-[Pen][NMeR]SDTL[Pen]HE[dK]-NH2; disulfide I:1-I:7, II:1-II:7; linker I:10-II:10 via Diglycolyl) gave an IC50 of 10 to 25 nM.
In the case of `CC(=O)N[C@@H]1C(=O)N(C)[C@@H](CCCNC(=N)N)C(=O)N[C@@H](CO)C(=O)N[C@@H](CC(=O)O)C(=O)N[C@@H]([C@@H](C)O)C(=O)N[C@@H](CC(C)C)C(=O)N[C@H](C(=O)N[C@@H](Cc2c[nH]c3ccccc23)C(=O)N[C@@H](Cc2ccccc2)C(=O)N[C@H](CCCCNC(=O)COCC(=O)NCCCC[C@@H](NC(=O)[C@H](Cc2ccccc2)NC(=O)[C@H](Cc2c[nH]c3ccccc23)NC(=O)[C@H]2NC(=O)[C@H](CC(C)C)NC(=O)[C@H]([C@@H](C)O)NC(=O)[C@H](CC(=O)O)NC(=O)[C@H](CO)NC(=O)[C@H](CCCNC(=N)N)N(C)C(=O)[C@@H](NC(C)=O)C(C)(C)SSC2(C)C)C(N)=O)C(N)=O)C(C)(C)SSC1(C)C` [compound 85] (I: Ac-[Pen][NMeR]SDTL[Pen]WF[dK]-NH2 / II: Ac-[Pen][NMeR]SDTL[Pen]WF[dK]-NH2; disulfide I:1-I:7, II:1-II:7; linker I:10-II:10 via Diglycolyl), the IC50 is reported as under 10 nM.
For `CC(=O)N[C@@H]1C(=O)N(C)[C@@H](CCCNC(=N)N)C(=O)N[C@@H](CO)C(=O)N[C@@H](CC(=O)O)C(=O)N[C@@H](CCC(C)C)C(=O)N[C@@H](CC(C)C)C(=O)N[C@H](C(=O)N[C@@H](Cc2ccc3ccccc3c2)C(=O)N[C@H](CCC(=O)O)C(N)=O)C(C)(C)SSC1(C)C` [compound 161] (Ac-[Pen][NMeR]SD[hLeu]L[Pen][2Nal][dE]-NH2; disulfide 1-7), the IC50 was 1000 to 10000 nM.
With `CC(=O)N[C@@H]1C(=O)N(C)[C@@H](CCCNC(=N)N)C(=O)N[C@@H](CO)C(=O)N[C@@H](CC(=O)O)C(=O)N[C@@H]([C@@H](C)O)C(=O)N[C@@H](CCC(N)=O)C(=O)N[C@H](C(=O)N[C@@H](Cc2ccc(C(C)(C)C)cc2)C(=O)N[C@@H](CCC(=O)O)CC(=O)N[C@H](CCCCNC(=O)CN(CC(=O)NCCCC[C@@H](NC(=O)C[C@H](CCC(=O)O)NC(=O)[C@H](Cc2ccc(C(C)(C)C)cc2)NC(=O)[C@H]2NC(=O)[C@H](CCC(N)=O)NC(=O)[C@H]([C@@H](C)O)NC(=O)[C@H](CC(=O)O)NC(=O)[C@H](CO)NC(=O)[C@H](CCCNC(=N)N)N(C)C(=O)[C@@H](NC(C)=O)C(C)(C)SSC2(C)C)C(N)=O)C(=O)CCN)C(N)=O)C(C)(C)SSC1(C)C` [compound 187] the IC50 was 100 to 500 nM.
`CC(=O)N[C@@H]1C(=O)N(C)[C@@H](CCCNC(=N)N)C(=O)N[C@@H](CO)C(=O)N[C@@H](CC(=O)O)C(=O)N[C@@H]([C@@H](C)O)C(=O)N[C@@H](CC(C)C)C(=O)N[C@H](C(=O)N[C@@H](Cc2ccccc2C(N)=O)C(=O)N[C@H](CCC(=O)O)C(=O)N[C@H](CCCCNC(=O)COCC(=O)NCCCC[C@@H](NC(=O)[C@@H](CCC(=O)O)NC(=O)[C@H](Cc2ccccc2C(N)=O)NC(=O)[C@H]2NC(=O)[C@H](CC(C)C)NC(=O)[C@H]([C@@H](C)O)NC(=O)[C@H](CC(=O)O)NC(=O)[C@H](CO)NC(=O)[C@H](CCCNC(=N)N)N(C)C(=O)[C@@H](NC(C)=O)C(C)(C)SSC2(C)C)C(N)=O)C(N)=O)C(C)(C)SSC1(C)C` [compound 98] (I: Ac-[Pen][NMeR]SDTL[Pen][Phe(2-CONH2)][dE][dK]-NH2 / II: Ac-[Pen][NMeR]SDTL[Pen][Phe(2-CONH2)][dE][dK]-NH2; disulfide I:1-I:7, II:1-II:7; linker I:10-II:10 via Diglycolyl) gave an IC50 of 50 to 100 nM.
Work on `CC(=O)N[C@@H]1C(=O)N(C)[C@@H](CCCNC(=N)N)C(=O)N[C@@H](CO)C(=O)N[C@@H](CC(=O)O)C(=O)N[C@@H](C(C)C)C(=O)N[C@@H](CC(C)C)C(=O)N[C@H](C(=O)N[C@@H](Cc2ccc3ccccc3c2)C(=O)N[C@H](CCC(=O)O)C(N)=O)C(C)(C)SSC1(C)C` [compound 156] (Ac-[Pen][NMeR]SDVL[Pen][2Nal][dE]-NH2; disulfide 1-7) yielded an IC50 of 100 to 500 nM.
In the case of `CC(=O)N[C@@H]1C(=O)N(C)[C@@H](CCCNC(=N)N)C(=O)N[C@@H](CO)C(=O)N[C@@H](CC(=O)O)C(=O)N[C@@H]([C@@H](C)O)C(=O)N[C@@H](CC(C)C)C(=O)N[C@H](C(=O)N[C@@H](Cc2c[nH]c3ccccc23)C(=O)N[C@@H](Cc2ccc(C(=O)O)cc2)C(=O)N[C@H](CCCCNC(=O)COCC(=O)NCCCC[C@@H](NC(=O)[C@H](Cc2ccc(C(=O)O)cc2)NC(=O)[C@H](Cc2c[nH]c3ccccc23)NC(=O)[C@H]2NC(=O)[C@H](CC(C)C)NC(=O)[C@H]([C@@H](C)O)NC(=O)[C@H](CC(=O)O)NC(=O)[C@H](CO)NC(=O)[C@H](CCCNC(=N)N)N(C)C(=O)[C@@H](NC(C)=O)C(C)(C)SSC2(C)C)C(N)=O)C(N)=O)C(C)(C)SSC1(C)C` [compound 105] (I: Ac-[Pen][NMeR]SDTL[Pen]W[Phe(4-COOH)][dK]-NH2 / II: Ac-[Pen][NMeR]SDTL[Pen]W[Phe(4-COOH)][dK]-NH2; disulfide I:1-I:7, II:1-II:7; linker I:10-II:10 via Diglycolyl), the IC50 is reported as 50 to 100 nM.
For `CC(=O)N[C@@H]1C(=O)N(C)[C@@H](CCCNC(=N)N)C(=O)N[C@@H](CO)C(=O)N[C@@H](CC(=O)O)C(=O)N[C@@H]([C@@H](C)O)C(=O)N[C@@H](CC(C)C)C(=O)N[C@H](C(=O)N[C@@H](Cc2cccc3ccccc23)C(=O)N[C@@H](C(=O)N[C@H](CCCCNC(=O)COCC(=O)NCCCC[C@@H](NC(=O)[C@H](NC(=O)[C@H](Cc2cccc3ccccc23)NC(=O)[C@H]2NC(=O)[C@H](CC(C)C)NC(=O)[C@H]([C@@H](C)O)NC(=O)[C@H](CC(=O)O)NC(=O)[C@H](CO)NC(=O)[C@H](CCCNC(=N)N)N(C)C(=O)[C@@H](NC(C)=O)C(C)(C)SSC2(C)C)[C@H](C)O)C(N)=O)C(N)=O)[C@H](C)O)C(C)(C)SSC1(C)C` [compound 116] (I: Ac-[Pen][NMeR]SDTL[Pen][1Nal][dT][dK]-NH2 / II: Ac-[Pen][NMeR]SDTL[Pen][1Nal][dT][dK]-NH2; disulfide I:1-I:7, II:1-II:7; linker I:10-II:10 via Diglycolyl), the IC50 was 50 to 100 nM.
